The values that follow come from ChEMBL document CHEMBL1153803, “Parallel synthesis of chiral pentaamines and pyrrolidine containing bis-heterocyclic libraries. Multiple scaffolds with multiple building blocks: a double diversity for the identification of new antitubercular compounds” (Bioorg Med Chem Lett, 2009).

Structures are written as SMILES. Values after ≈ are worked out from the molar mass of the structure shown. Some results are limits rather than exact numbers.

One assay relates to Vero. Description: Cytotoxicity against african green monkey Vero cells at after 72 hrs by MTT assay. Type of assay: cell-based, Chlorocebus sabaeus. On the technique in general: Tetrazolium assays rely on reduction of a dye to a coloured formazan, in cell work by metabolically active cells.
Assay [1] relates to Mycobacterium tuberculosis. The assay can be described thus: Antimicrobial activity against Mycobacterium tuberculosis H37Rv ATCC 27294 by microplate Almar blue assay. Type of assay: functional.
Assay [2] in a line: Selective index, the ratio of IC50 in the african green monkey Vero cells to the MIC to Mycobacterium tuberculosis H37Rv ATCC 27294. Type of assay: functional.
Assay [3] relates to Mycobacterium tuberculosis. The assay can be described thus: Antimicrobial activity against Mycobacterium tuberculosis H37Rv ATCC 27294 at 6.25 ug/mL by broth microdilution assay. It is filed as functional. (In general: Broth dilution looks for growth in wells or tubes with falling amounts of substance.)
[4] abbreviates: Chlorocebus sabaeus, Vero, 72 h, read-out: IC50.
[5] abbreviates: Mycobacterium tuberculosis, H37Rv ATCC 27294, read-out: MIC.

On to `NC[C@H](Cc1ccccc1)NC[C@@H]1CCCN1C[C@H](Cc1ccccc1)NC[C@H](Cc1ccccc1)NCCC12CC3CC(CC(C3)C1)C2`, for which the concentration for half-maximal inhibition (IC50) in the assay with Vero (setting [4]) was determined as 1.1 µg/mL (≈ 1.66 µM). Further, in assay [1] (setting [5]), the MIC turned out to be 3.13 µg/mL (≈ 4.73 µM).
On to `NC[C@H](Cc1ccc2ccccc2c1)NC[C@@H]1CCCN1C[C@H](Cc1ccccc1)NC[C@H](Cc1ccccc1)NCCc1ccccc1`, for which the IC50 in the assay with Vero (setting [4]) turned out to be 4.23 µg/mL (≈ 6.47 µM). The minimum inhibitory concentration (MIC) in assay [1] (setting [5]) amounted to 6.25 µg/mL (≈ 9.56 µM).
Consider `CC1CCC(CN2CCN([C@@H](Cc3ccccc3)CN3CCCC3CN3CCNC[C@@H]3Cc3ccccc3)C[C@@H]2Cc2ccccc2)CC1` (stereo partly drawn), for which the values for the half-maximal inhibitory concentration (IC50) in the assay with Vero (setting [4]) and in the assay with Vero (vero) were 1.39 µg/mL (≈ 2.1 µM) and 0.82 µg/mL (≈ 1.24 µM), respectively. Also, the “Selectivity Index” value in assay [2] amounted to 0.21. For the same molecule, the values for the MIC in assay [1] and in assay [1] (setting [5]) were 3.9 µg/mL (≈ 5.89 µM) and 6.25 µg/mL (≈ 9.44 µM), respectively. In assay [3], this molecule registered an inhibition at 6.25 µg/mL of 99%.
As to `NC[C@H](Cc1ccccc1)NC[C@@H]1CCCN1C[C@H](Cc1ccccc1)NC[C@H](Cc1ccccc1)NCC12CC3CC(CC(C3)C1)C2`, the minimum inhibitory concentration (MIC) in assay [1] (setting [5]) was found to be 6.25 µg/mL (≈ 9.65 µM).
On the same count and under the same terms, the figure for `NC[C@H](Cc1ccccc1)NC[C@@H]1CCCN1C[C@H](Cc1ccccc1)NC[C@H](Cc1ccccc1)NCC1CCCC1` is 6.25 µg/mL (≈ 10.7 µM); for `NC[C@H](Cc1ccccc1)NC[C@@H]1CCCN1C[C@H](Cc1ccccc1)NC[C@H](Cc1ccccc1)NCCCC1CCCC1` it is 6.25 µg/mL (≈ 10.2 µM).
As for `NC[C@H](Cc1ccccc1)NC[C@@H]1CCCN1C[C@H](Cc1ccccc1)NC[C@H](Cc1ccccc1)NCCC1CCCCC1`, the IC50 with Vero (setting [4]) is 1.05 µg/mL (≈ 1.72 µM). For the same molecule, the minimum inhibitory concentration (MIC) in assay [1] (setting [5]) was determined as 6.25 µg/mL (≈ 10.2 µM).
Consider `CCCCCCCN[C@H](CN[C@@H](Cc1ccccc1)CN1CCC[C@H]1CN[C@H](CN)Cc1ccccc1)Cc1ccccc1`, for which the MIC in assay [1] (setting [5]) was > 6.25 µg/mL.
In the case of `NC[C@H](Cc1ccccc1)NC[C@@H]1CCCN1C[C@H](Cc1ccccc1)NC[C@H](Cc1ccccc1)NCCc1ccc(-c2ccccc2)cc1`, the MIC in assay [1] (setting [5]) is > 6.25 µg/mL.
Regarding `c1ccc(C[C@H]2CNCCN2C[C@@H]2CCCN2C[C@H](Cc2ccccc2)N2CCN(CC34CC5CC(CC(C5)C3)C4)[C@@H](Cc3ccccc3)C2)cc1`, the minimum inhibitory concentration (MIC) in assay [1] (setting [5]) stood at 3.9 µg/mL (≈ 5.57 µM). The inhibition at 6.25 µg/mL in assay [3] worked out at 99%.
For `S=C1NC[C@H](Cc2ccccc2)N1C[C@@H]1CCCN1C[C@H](Cc1ccccc1)N1C[C@H](Cc2ccccc2)N(CC23CC4CC(CC(C4)C2)C3)C1=S` the same measures were 6.25 µg/mL (≈ 8.54 µM) and 98%.
For `N=C1NC[C@H](Cc2ccccc2)N1C[C@@H]1CCCN1C[C@H](Cc1ccccc1)N1C[C@H](Cc2ccccc2)N(CC23CC4CC(CC(C4)C2)C3)C1=N` the same measures were 3.9 µg/mL (≈ 5.59 µM) and 91%.
`N=C1NC[C@H](Cc2ccccc2)N1CC1CCCN1C[C@H](Cc1ccccc1)N1C[C@H](Cc2ccccc2)N(CC2CCCCCC2)C1=N` (stereo partly drawn): the IC50 with Vero (setting [4]) came out at 39.5 µg/mL (≈ 59.8 µM). Moreover, the “Selectivity Index” value in assay [2] was 10.1. Moreover, the minimal inhibitory concentration (MIC) in assay [1] (setting [5]) was 3.9 µg/mL (≈ 5.91 µM). In addition, in assay [3], the inhibition at 6.25 µg/mL came to 92%.
Regarding `N=C1NC[C@H](Cc2ccccc2)N1CC1CCCN1C[C@H](Cc1ccccc1)N1C[C@H](Cc2ccccc2)N(CCc2ccc(Cl)c(Cl)c2)C1=N` (stereo partly drawn), the IC50 in the assay with Vero (setting [4]) was determined as 24.5 µg/mL (≈ 33.9 µM). In assay [2], the “Selectivity Index” value is given as 6.3. For the same molecule, in assay [1] (setting [5]), the MIC is 3.9 µg/mL (≈ 5.4 µM). The molecule also registered an inhibition at 6.25 µg/mL in assay [3] of 95%.
Regarding `CCC(C)CN1C(=N)N([C@@H](Cc2ccccc2)CN2CCCC2CN2C(=N)NC[C@@H]2Cc2ccccc2)C[C@@H]1Cc1ccccc1` (stereo partly drawn), in the assay on Vero (setting [4]), the IC50 was 36.8 µg/mL (≈ 59.3 µM). Also, the “Selectivity Index” value in assay [2] came out at 4.7. The minimal inhibitory concentration (MIC) in assay [1] (setting [5]) turned out to be 7.8 µg/mL (≈ 12.6 µM). In assay [3], this molecule gave an inhibition at 6.25 µg/mL of 90%.
For `N=C1NC[C@H](Cc2ccccc2)N1CC1CCCN1C[C@H](Cc1ccccc1)N1C[C@H](Cc2ccccc2)N(CC2CCCC2)C1=N` (stereo partly drawn) the same measures were 33.5 µg/mL (≈ 53.1 µM), 4.3, 7.8 µg/mL (≈ 12.3 µM) and 93%.
Turning to `CC(C)CCCN1C(=N)N([C@@H](Cc2ccccc2)CN2CCCC2CN2C(=N)NC[C@@H]2Cc2ccccc2)C[C@@H]1Cc1ccccc1` (stereo partly drawn), in the assay with Vero (setting [4]), the IC50 came to 31 µg/mL (≈ 48.9 µM). In assay [2], the “Selectivity Index” value came to 3.97. In addition, in assay [1] (setting [5]), the MIC is 7.8 µg/mL (≈ 12.3 µM). In addition, the inhibition at 6.25 µg/mL in assay [3] stood at 93%.
`N=C1NC[C@H](Cc2ccccc2)N1CC1CCCN1C[C@H](Cc1ccccc1)N1C[C@H](Cc2ccccc2)N(CCC23CC4CC(CC(C4)C2)C3)C1=N` (stereo partly drawn): in the assay on Vero (setting [4]), the half-inhibitory concentration (IC50) was 14.5 µg/mL (≈ 20.3 µM). Further, in assay [2], the “Selectivity Index” value was 3.7. Further, the MIC in assay [1] (setting [5]) came to 3.9 µg/mL (≈ 5.48 µM). Also, at 6.25 µg/mL the inhibition in assay [3] was 91%.
Take `N=C1NC[C@H](Cc2ccccc2)N1CC1CCCN1C[C@H](Cc1ccccc1)N1C[C@H](Cc2ccccc2)N(CCCCC2CCCCC2)C1=N` (stereo partly drawn): the IC50 in the assay with Vero (setting [4]) stood at 14.3 µg/mL (≈ 20.8 µM). The “Selectivity Index” value in assay [2] is 3.7. Further, the MIC in assay [1] (setting [5]) stood at 3.9 µg/mL (≈ 5.67 µM). In assay [3], this molecule displayed an inhibition at 6.25 µg/mL of 91%.
For `N=C1NC[C@H](Cc2ccccc2)N1CC1CCCN1C[C@H](Cc1ccccc1)N1C[C@H](Cc2ccccc2)N(CCC2CCCCC2)C1=N` (stereo partly drawn) the same measures were 13.9 µg/mL (≈ 21.1 µM), 3.8, 3.9 µg/mL (≈ 5.91 µM) and 94%.
For `N=C1NC[C@H](Cc2ccccc2)N1CC1CCCN1C[C@H](Cc1ccccc1)N1C[C@H](Cc2ccccc2)N(CCC2CC3CCC2C3)C1=N` (stereo partly drawn) the same measures were 15.5 µg/mL (≈ 23 µM), 1.98, 7.8 µg/mL (≈ 11.6 µM) and 94%.
For the molecule `CC(C)(C)C1CCC(CN2C(=N)N([C@@H](Cc3ccccc3)CN3CCCC3CN3C(=N)NC[C@@H]3Cc3ccccc3)C[C@@H]2Cc2ccccc2)CC1` (stereo partly drawn), in the assay with Vero (setting [4]), the concentration for half-maximal inhibition (IC50) stood at 15.2 µg/mL (≈ 21.7 µM). For the same molecule, in assay [2], the “Selectivity Index” value is given as 1.95. In addition, the minimal inhibitory concentration (MIC) in assay [1] (setting [5]) amounted to 7.8 µg/mL (≈ 11.1 µM). This molecule also yielded an inhibition at 6.25 µg/mL in assay [3] of 94%.
For `S=C1NC[C@H](Cc2ccccc2)N1CC1CCCN1C[C@H](Cc1ccccc1)N1C[C@H](Cc2ccccc2)N(CC2CCCCC2)C1=S` (stereo partly drawn) the same measures were 8.47 µg/mL (≈ 12.5 µM), 2.2, 3.9 µg/mL (≈ 5.73 µM) and 97%.
For `CC(C)[C@H]1CNC(=S)N1CC1CCCN1C[C@H](Cc1ccccc1)N1C[C@H](Cc2ccccc2)N(CCc2ccccc2)C1=S` (stereo partly drawn), at 6.25 µg/mL the inhibition in assay [3] was 90%.
On to `NC[C@H](Cc1ccccc1)NC[C@@H]1CCCN1C[C@H](Cc1ccccc1)NC[C@H](Cc1ccccc1)NCCCC1CCCCC1`, for which the minimal inhibitory concentration (MIC) in assay [1] (setting [5]) came to 3.13 µg/mL (≈ 5.02 µM). The inhibition at 6.25 µg/mL in assay [3] came to 99%.
On to `CCC(C)CCN1C(=N)N([C@@H](Cc2ccccc2)CN2CCCC2CN2C(=N)NC[C@@H]2Cc2ccccc2)C[C@@H]1Cc1ccccc1` (stereo partly drawn), for which, in the assay with Vero (setting [4]), the IC50 stood at 32.3 µg/mL (≈ 50.9 µM). Moreover, in assay [2], the “Selectivity Index” value is recorded as 4.1. In addition, in assay [1] (setting [5]), the minimal inhibitory concentration (MIC) is 7.8 µg/mL (≈ 12.3 µM). Further, in assay [3], 6.25 µg/mL produced 91% inhibition.
For `CC(C)(C)C1CCC(CN2CCN([C@@H](Cc3ccccc3)CN3CCCC3CN3CCNC[C@@H]3Cc3ccccc3)C[C@@H]2Cc2ccccc2)CC1` (stereo partly drawn) the same measures were 1.15 µg/mL (≈ 1.63 µM), 0.58, 2 µg/mL (≈ 2.84 µM) and 97%.
Regarding `OCC(CN1CCN([C@@H](Cc2ccccc2)CN2CCCC2CN2CCNC[C@@H]2Cc2ccccc2)C[C@@H]1Cc1ccccc1)c1ccccc1` (stereo partly drawn), the IC50 in the assay on Vero (setting [4]) is 1.08 µg/mL (≈ 1.57 µM). In assay [1] (setting [5]), the minimal inhibitory concentration (MIC) was found to be 20 µg/mL (≈ 29.2 µM). In addition, in assay [3], the inhibition at 6.25 µg/mL was 99%.
In the case of `NC[C@H](Cc1ccccc1)NC[C@@H]1CCCN1C[C@H](Cc1ccccc1)NC[C@H](Cc1ccccc1)NCCC1CC2CCC1C2` (stereo partly drawn), the IC50 in the assay on Vero (setting [4]) was 1.03 µg/mL (≈ 1.66 µM). For the same molecule, the minimum inhibitory concentration (MIC) in assay [1] (setting [5]) turned out to be 3.13 µg/mL (≈ 5.03 µM).

Usually IC50 stands for the midpoint of a concentration-inhibition curve. As usually defined, the MIC is the least concentration at which growth counts as inhibited. Usually inhibition stands for how much of the control response was suppressed.
